# Results published in patent US10624829B2, “VEGFC production promoter” (Shiseido Company, Ltd., priority 2012, dated 2020).
# Assays:
# VEGFC = test: VEGFC-inducing activity in HaCaT cells (VEGF-C ELISA of culture supernatant, normalised to cell number); format: cell-based, human; conditions: aromatic final concentration 0.001% to 0.01%, 48 hours culture, ELISA of supernatant divided by alamar blue fluorescence, values only in FIG. 1
# Procedure: As is described in detail in the subsequent examples, screening for agents that induce a lymph vessel activating factor in the form of VEGFC was carried out by allowing various types of candidate aromatics to act on human epidermis-derived cultured cells in the form of HaCaT cells, quantifying VEGFC, and selecting aromatics having VEGFC-inducing activity as active ingredients by using the amount of VEGFC as an indicator of VEGFC-inducing activity.
# Human-derived cultured cells in the form of HaCaT cells (German Cancer Research Center, Heidelberg, Germany) were cultured in DMEM medium (Gibco Low Glucose DMEM™, Life Technologies Inc.) containing 10% FBS (Standard Fetal Bovine Serum, Hyclone Laboratories Inc.) and disseminated in a 24-well plate to 15×10^4 cells/well. The medium was replaced with serum-free DMEM 24 hours after dissemination followed by culturing for 24 hours. […] The culture supernatant was recovered after culturing for 48 hours and the amount of VEGFC in the culture supernatant was quantified in accordance with the protocol of an ELISA kit (Quanikine® Human VEGF-C Immunoassay (R&D Systems Inc., Minneapolis, Minn.)). In addition, alamar blue (TREK Diagnostic Systems, Inc., Cleveland, US) was added to the cells after recovering the culture supernatant followed by measuring the number of cells based on their fluorescence intensity (Ex: 544 nm, Em: 590 nm). […]
# HaCaT cells = test: Cytotoxicity / cell number by alamar blue fluorescence in HaCaT cells; format: cell-based, human; conditions: aromatic final concentration 0.001% to 0.01%, 48 hours, alamar blue (Ex: 544 nm, Em: 590 nm)
# Procedure: Human-derived cultured cells in the form of HaCaT cells (German Cancer Research Center, Heidelberg, Germany) were cultured in DMEM medium (Gibco Low Glucose DMEM™, Life Technologies Inc.) containing 10% FBS (Standard Fetal Bovine Serum, Hyclone Laboratories Inc.) and disseminated in a 24-well plate to 15×10^4 cells/well. The medium was replaced with serum-free DMEM 24 hours after dissemination followed by culturing for 24 hours. Subsequently, each aromatic dissolved in ethanol was added (aromatic final concentration: 0.001% to 0.01%). Ethanol was used as a control. The culture supernatant was recovered after culturing for 48 hours and the amount of VEGFC in the culture supernatant was quantified in accordance with the protocol of an ELISA kit (Quanikine® Human VEGF-C Immunoassay (R&D Systems Inc., Minneapolis, Minn.)). In addition, alamar blue (TREK Diagnostic Systems, Inc., Cleveland, US) was added to the cells after recovering the culture supernatant followed by measuring the number of cells based on their fluorescence intensity (Ex: 544 nm, Em: 590 nm). The amount of VEGFC in the supernatant was divided by fluorescence intensity, and the relative VEGFC-inducing activity per cell based on a value of 100 for the control (ethanol) is shown in FIG. 1.
structure (smiles),measurement,setting,value
"CC(=O)OCCC(C)CCC=C(C)C (stereo not shown) [citronellyl acetate, Citronellyl acetate]",relative VEGFC-inducing activity per cell based on a value of 100 for the control (ethanol),VEGFC,demonstrated VEGFC-inducing activity
same,cytotoxicity,HaCaT cells,without demonstrating cytotoxicity
"CC(C)=CC1CC(C)CCO1 (stereo not shown) [rose oxide, Rose oxide]",relative VEGFC-inducing activity per cell based on a value of 100 for the control (ethanol),VEGFC,demonstrated VEGFC-inducing activity
same,cytotoxicity,HaCaT cells,without demonstrating cytotoxicity
